Laboratory results: patent US20250114345A1, “COMPOUNDS AND COMPOSITIONS AS CBP/P300 DEGRADERS AND USES THEREOF” (Oncopia Therapeutics, Inc. d/b/a/ SK Life Science Labs, priority 2023, published 2025)

Target: T1, p300 (Homo sapiens, UniProt Q09472)
T1 construct: host or cells: A549 P300 HiBit cells
Experiment: P300 degradation, HiBit technology in A549 P300 HiBit cells (2 h)
Format: cell-based
Settings: 2 hrs post treatment; for Dmax: A549, A549 P300 HiBit cells; for DC50: A549 P300 HiBit cells
Outline: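 A549 cells carrying HiBit-tagged p300 or CBP, seeded overnight at 37 °C/5% CO2, then treated with serial compound dilutions from 10 mM DMSO stocks. Incubation was 2 h for p300 and 24 h for CBP, followed by HiBit lytic detection reagent for 10 min at room temperature. Luminescence read gave degradation potency and Dmax.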

T1 sequence (Q09472 whole entry): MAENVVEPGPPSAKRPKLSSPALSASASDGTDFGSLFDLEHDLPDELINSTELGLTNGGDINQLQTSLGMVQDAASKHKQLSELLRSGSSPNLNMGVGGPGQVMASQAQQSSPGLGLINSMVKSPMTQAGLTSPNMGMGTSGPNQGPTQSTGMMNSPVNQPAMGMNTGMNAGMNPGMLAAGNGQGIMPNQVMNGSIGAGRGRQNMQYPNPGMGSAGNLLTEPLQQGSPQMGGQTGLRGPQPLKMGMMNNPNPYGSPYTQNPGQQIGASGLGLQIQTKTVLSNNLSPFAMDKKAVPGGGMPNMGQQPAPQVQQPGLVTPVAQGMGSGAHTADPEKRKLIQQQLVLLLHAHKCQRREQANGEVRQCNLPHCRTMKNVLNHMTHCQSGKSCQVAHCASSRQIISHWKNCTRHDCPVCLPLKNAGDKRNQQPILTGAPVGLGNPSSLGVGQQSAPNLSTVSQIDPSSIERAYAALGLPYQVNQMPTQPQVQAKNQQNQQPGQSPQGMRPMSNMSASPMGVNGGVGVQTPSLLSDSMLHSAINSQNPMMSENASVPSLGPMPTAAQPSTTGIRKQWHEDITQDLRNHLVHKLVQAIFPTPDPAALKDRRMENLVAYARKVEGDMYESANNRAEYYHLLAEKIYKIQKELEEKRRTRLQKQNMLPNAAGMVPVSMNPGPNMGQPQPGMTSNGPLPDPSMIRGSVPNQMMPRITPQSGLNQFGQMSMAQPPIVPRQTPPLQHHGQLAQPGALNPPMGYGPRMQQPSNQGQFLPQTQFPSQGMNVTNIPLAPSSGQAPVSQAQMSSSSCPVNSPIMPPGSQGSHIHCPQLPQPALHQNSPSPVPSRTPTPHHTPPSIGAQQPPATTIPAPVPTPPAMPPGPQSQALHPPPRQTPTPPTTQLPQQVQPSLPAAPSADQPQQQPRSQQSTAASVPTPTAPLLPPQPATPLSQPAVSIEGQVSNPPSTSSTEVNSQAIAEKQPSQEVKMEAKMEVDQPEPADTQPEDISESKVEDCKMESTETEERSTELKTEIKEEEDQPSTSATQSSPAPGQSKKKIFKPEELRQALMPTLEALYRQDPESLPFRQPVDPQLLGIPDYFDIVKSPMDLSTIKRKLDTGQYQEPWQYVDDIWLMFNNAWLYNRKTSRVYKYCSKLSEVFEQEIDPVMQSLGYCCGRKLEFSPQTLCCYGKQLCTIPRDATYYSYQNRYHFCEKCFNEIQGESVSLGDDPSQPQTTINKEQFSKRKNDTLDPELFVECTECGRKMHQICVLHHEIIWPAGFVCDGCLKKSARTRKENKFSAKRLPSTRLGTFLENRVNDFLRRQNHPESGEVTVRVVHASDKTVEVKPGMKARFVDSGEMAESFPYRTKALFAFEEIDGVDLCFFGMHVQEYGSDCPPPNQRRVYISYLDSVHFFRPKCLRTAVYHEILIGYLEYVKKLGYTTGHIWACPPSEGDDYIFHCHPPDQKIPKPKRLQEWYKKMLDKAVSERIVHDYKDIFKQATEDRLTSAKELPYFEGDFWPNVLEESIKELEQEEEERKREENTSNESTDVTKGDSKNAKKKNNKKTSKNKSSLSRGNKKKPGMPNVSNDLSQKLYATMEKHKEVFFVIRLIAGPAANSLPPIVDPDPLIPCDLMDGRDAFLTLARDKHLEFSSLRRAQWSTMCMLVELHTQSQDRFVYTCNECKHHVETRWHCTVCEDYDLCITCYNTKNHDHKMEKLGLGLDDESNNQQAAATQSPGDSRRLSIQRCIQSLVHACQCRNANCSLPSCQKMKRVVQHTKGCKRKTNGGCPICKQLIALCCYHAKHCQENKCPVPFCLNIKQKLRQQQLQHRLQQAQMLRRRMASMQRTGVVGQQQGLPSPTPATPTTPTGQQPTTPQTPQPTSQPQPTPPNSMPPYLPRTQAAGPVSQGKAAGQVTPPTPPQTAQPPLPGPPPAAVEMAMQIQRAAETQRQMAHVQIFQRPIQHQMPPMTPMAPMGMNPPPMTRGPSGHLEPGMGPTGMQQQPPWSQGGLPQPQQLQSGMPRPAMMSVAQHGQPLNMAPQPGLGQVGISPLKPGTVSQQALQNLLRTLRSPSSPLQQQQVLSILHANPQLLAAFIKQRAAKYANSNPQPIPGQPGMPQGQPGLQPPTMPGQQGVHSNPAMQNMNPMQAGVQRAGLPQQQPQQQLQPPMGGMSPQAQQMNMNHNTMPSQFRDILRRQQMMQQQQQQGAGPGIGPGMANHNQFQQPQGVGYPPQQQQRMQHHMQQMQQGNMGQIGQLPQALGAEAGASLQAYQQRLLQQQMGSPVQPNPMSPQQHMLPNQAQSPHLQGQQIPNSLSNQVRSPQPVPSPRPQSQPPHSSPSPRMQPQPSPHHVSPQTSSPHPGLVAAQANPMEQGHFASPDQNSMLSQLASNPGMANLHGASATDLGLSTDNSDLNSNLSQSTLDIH

| Compound | Dmax [%] | DC50 [nM] |
| --- | --- | --- |
| Cc1cc2c(N3CCN(C)c4nc(-c5ccc(C(=O)NCC#Cc6cc7c(C8CCC(=O)NC8=O)cccc7o6)nc5)ncc43)cccc2n(C)c1=O (centres unmarked) [Example B65, 5-(5-(1,3-dimethyl-2-oxo-1,2-dihydroquinolin-5-yl)-8-methyl-5,6,7,8-tetrahydropteridin-2-yl)-N-(3-(4-(2,6-dioxopiperidin-3-yl)benzofuran-2-yl)prop-2-yn-1-yl)picolinamide] | > 80 | 1 to 9.9 |
| Cc1cc2c(N3CCCc4nc(-c5ccc(C(=O)NCC#Cc6ccc7occ(C8CCC(=O)NC8=O)c7c6)nc5)ncc43)nc(C3CCOCC3)cc2n(C)c1=O (centres unmarked) [Example B70, 5-(5-(1,3-dimethyl-2-oxo-7-(tetrahydro-2H-pyran-4-yl)-1,2-dihydro-1,6-naphthyridin-5-yl)-5,6,7,8-tetrahydropyrido[3,2-d]pyrimidin-2-yl)-N-(3-(3-(2,6-dioxopiperidin-3-yl)benzofuran-5-yl)prop-2-yn-1-yl)picolinamide] | 60 to 79 | 1 to 9.9 |
| Cc1nc2c(N3CCCc4nc(-c5ccc(C(=O)NCC#Cc6ccc7occ(C8CCC(=O)NC8=O)c7c6)nc5)ncc43)cc(C3CCOCC3)cc2n(C)c1=O (centres unmarked) [Example B78, 5-(5-(1,3-dimethyl-2-oxo-7-(tetrahydro-2H-pyran-4-yl)-1,2-dihydroquinoxalin-5-yl)-5,6,7,8-tetrahydropyrido[3,2-d]pyrimidin-2-yl)-N-(3-(3-(2,6-dioxopiperidin-3-yl)benzofuran-5-yl)prop-2-yn-1-yl)picolinamide] | < 20 | > 1000 |
| Cc1cc(=O)n(C)c2cc(C3CCOCC3)cc(N3CCCc4nc(-c5ccc(C(=O)NCC#Cc6ccc7occ(C8CCC(=O)NC8=O)c7c6)nc5)ncc43)c12 (centres unmarked) [Example B80, 5-(5-(1,4-dimethyl-2-oxo-7-(tetrahydro-2H-pyran-4-yl)-1,2-dihydroquinolin-5-yl)-5,6,7,8-tetrahydropyrido[3,2-d]pyrimidin-2-yl)-N-(3-(3-(2,6-dioxopiperidin-3-yl)benzofuran-5-yl)prop-2-yn-1-yl)picolinamide] | < 20 | > 1000 |
| Cc1cc2c(N3CCCc4nc(-c5ccc(C(=O)NCC#Cc6ccc7occ(C8(C)CCC(=O)NC8=O)c7c6)nc5)ncc43)cc(C3CCOCC3)cc2n(C)c1=O (centres unmarked) [Example B85, 5-(5-(1,3-dimethyl-2-oxo-7-(tetrahydro-2H-pyran-4-yl)-1,2-dihydroquinolin-5-yl)-5,6,7,8-tetrahydropyrido[3,2-d]pyrimidin-2-yl)-N-(3-(3-(3-methyl-2,6-dioxopiperidin-3-yl)benzofuran-5-yl)prop-2-yn-1-yl)picolinamide] | < 20 | > 1000 |
| Cc1cc2c(N3CCCc4nc(-c5ccc(C(=O)NCC#Cc6ccc7occ(C8CCC(=O)NC8=O)c7c6)nc5)ncc43)nc(N3CCC3)cc2n(C)c1=O (centres unmarked) [Example B86, 5-(5-(7-(azetidin-1-yl)-1,3-dimethyl-2-oxo-1,2-dihydro-1,6-naphthyridin-5-yl)-5,6,7,8-tetrahydropyrido[3,2-d]pyrimidin-2-yl)-N-(3-(3-(2,6-dioxopiperidin-3-yl)benzofuran-5-yl)prop-2-yn-1-yl)picolinamide] | > 80 | 1 to 9.9 |
| Cc1cc(-c2ncc3c(n2)CCCN3c2nc(N3CCOCC3)cc3c2cc(C)c(=O)n3C)cnc1C(=O)NCC#Cc1cc2c(C3CCC(=O)NC3=O)cccc2o1 (centres unmarked) [Example B89, 5-(5-(1,3-dimethyl-7-morpholino-2-oxo-1,2-dihydro-1,6-naphthyridin-5-yl)-5,6,7,8-tetrahydropyrido[3,2-d]pyrimidin-2-yl)-N-(3-(4-(2,6-dioxopiperidin-3-yl)benzofuran-2-yl)prop-2-yn-1-yl)-3-methylpicolinamide] | > 80 | 1 to 9.9 |
| Cc1cc2c(N3CCOc4cc(-c5ccc(C(=O)NCC#Cc6ccc7occ(C8CCC(=O)NC8=O)c7c6)nc5)c(F)cc43)cc(C(C)C)cc2n(C)c1=O (centres unmarked) [Example B91, N-(3-(3-(2,6-dioxopiperidin-3-yl)benzofuran-5-yl)prop-2-yn-1-yl)-5-(6-fluoro-4-(7-isopropyl-1,3-dimethyl-2-oxo-1,2-dihydroquinolin-5-yl)-3,4-dihydro-2H-benzo[b][1,4]oxazin-7-yl)picolinamide] | > 80 | 10 to 99 |
| CCc1cc2c(cc(C)c(=O)n2C)c(-c2cccc3cc(-c4ccc(C(=O)NCC#Cc5ccc6occ(C7CCC(=O)NC7=O)c6c5)nc4)ncc23)n1 (centres unmarked) [Example B93, N-(3-(3-(2,6-dioxopiperidin-3-yl)benzofuran-5-yl)prop-2-yn-1-yl)-5-(8-(7-ethyl-1,3-dimethyl-2-oxo-1,2-dihydro-1,6-naphthyridin-5-yl)isoquinolin-3-yl)picolinamide] | 60 to 79 | 1 to 9.9 |
| Cc1cc2c(N3CCN(C)c4cc(-c5ccc(C(=O)NCC#Cc6cc7c(C8CCC(=O)NC8=O)cccc7o6)nc5)ncc43)cc(C(C)C)cc2n(C)c1=O (centres unmarked) [Example B95, N-(3-(4-(2,6-dioxopiperidin-3-yl)benzofuran-2-yl)prop-2-yn-1-yl)-5-(4-(7-isopropyl-1,3-dimethyl-2-oxo-1,2-dihydroquinolin-5-yl)-1-methyl-1,2,3,4-tetrahydropyrido[3,4-b]pyrazin-7-yl)picolinamide] | > 80 | < 1 |
| Cc1cc2c(N3CCCc4nc(-c5ccc(C(=O)NCC#Cc6cc7c(C89CC(C8)C(=O)NC9=O)cccc7o6)nc5)ncc43)cc(C3CCOCC3)cc2n(C)c1=O [Example B97, 5-(5-(1,3-dimethyl-2-oxo-7-(tetrahydro-2H-pyran-4-yl)-1,2-dihydroquinolin-5-yl)-5,6,7,8-tetrahydropyrido[3,2-d]pyrimidin-2-yl)-N-(3-(4-(2,4-dioxo-3-azabicyclo[3.1.1]heptan-1-yl)benzofuran-2-yl)prop-2-yn-1-yl)picolinamide] | < 20 | 100 to 999 |
| Cc1cc2c(N3CCOc4cc(-c5ccc(C(=O)NCC#Cc6ccc7occ(C8CCC(=O)NC8=O)c7c6)nc5)c(F)cc43)cc(C3CCOCC3)cc2n(C)c1=O (centres unmarked) [Example B99, 5-(4-(1,3-dimethyl-2-oxo-7-(tetrahydro-2H-pyran-4-yl)-1,2-dihydroquinolin-5-yl)-6-fluoro-3,4-dihydro-2H-benzo[b][1,4]oxazin-7-yl)-N-(3-(3-(2,6-dioxopiperidin-3-yl)benzofuran-5-yl)prop-2-yn-1-yl)picolinamide] | > 80 | 1 to 9.9 |
| Cc1cc2c(N3CCOc4cc(-c5ccc(C(=O)NCC#Cc6ccc7occ(C8CCC(=O)NC8=O)c7c6)nc5)c(F)cc43)cc(F)cc2n(C)c1=O (centres unmarked) [Example B100, N-(3-(3-(2,6-dioxopiperidin-3-yl)benzofuran-5-yl)prop-2-yn-1-yl)-5-(6-fluoro-4-(7-fluoro-1,3-dimethyl-2-oxo-1,2-dihydroquinolin-5-yl)-3,4-dihydro-2H-benzo[b][1,4]oxazin-7-yl) picolinamide] | > 80 | 1 to 9.9 |
| Cc1cc2c(-c3cccc4cc(-c5ccc(C(=O)NCC#Cc6ccc7occ(C8CCC(=O)NC8=O)c7c6)nc5)ncc34)nc(N3CC(C)(O)C3)cc2n(C)c1=O (centres unmarked) [Example B101, N-(3-(3-(2,6-dioxopiperidin-3-yl)benzofuran-5-yl)prop-2-yn-1-yl)-5-(8-(7-(3-hydroxy-3-methylazetidin-1-yl)-1,3-dimethyl-2-oxo-1,2-dihydro-1,6-naphthyridin-5-yl)isoquinolin-3-yl)picolinamide] | > 80 | 1 to 9.9 |
| Cc1cc(N2CCN(C)c3nc(-c4ccc(C(=O)NCC#Cc5cc6c(C7CCC(=O)NC7=O)cccc6o5)nc4)ncc32)c2cc(C)c(=O)n(C)c2c1 (centres unmarked) [Example B104, N-(3-(4-(2,6-dioxopiperidin-3-yl)benzofuran-2-yl)prop-2-yn-1-yl)-5-(8-methyl-5-(1,3,7-trimethyl-2-oxo-1,2-dihydroquinolin-5-yl)-5,6,7,8-tetrahydropteridin-2-yl)picolinamide] | > 80 | 1 to 9.9 |
| Cn1c(=O)ccc2c(N3CCCc4nc(-c5ccc(C(=O)NCC#Cc6ccc7occ(C8CCC(=O)NC8=O)c7c6)nc5)ncc43)cc(C3CCOCC3)cc21 (centres unmarked) [Example B105, N-(3-(3-(2,6-dioxopiperidin-3-yl)benzofuran-5-yl)prop-2-yn-1-yl)-5-(5-(1-methyl-2-oxo-7-(tetrahydro-2H-pyran-4-yl)-1,2-dihydro-quinolin-5-yl)-5,6,7,8-tetrahydropyrido[3,2-d]pyrimidin-2-yl)picolinamide] | < 20 | > 1000 |
| Cc1cc2c(N3CCOc4cc(-c5ccc(C(=O)NCC#Cc6ccc7occ(C8CCC(=O)NC8=O)c7c6)nc5)ncc43)cc(C3CCOCC3)cc2n(C)c1=O (centres unmarked) [Example B109, 5-(4-(1,3-dimethyl-2-oxo-7-(tetrahydro-2H-pyran-4-yl)-1,2-dihydroquinolin-5-yl)-3,4-dihydro-2H-pyrido[4,3-b][1,4]oxazin-7-yl)-N-(3-(3-(2,6-dioxopiperidin-3-yl)benzofuran-5-yl)prop-2-yn-1-yl)picolinamide] | > 80 | < 1 |
| COC1CN(c2cc(N3CCOc4cc(-c5ccc(C(=O)NCC#Cc6ccc7occ(C8CCC(=O)NC8=O)c7c6)nc5)c(F)cc43)c3cc(C)c(=O)n(C)c3c2)C1 (centres unmarked) [Example B113, N-(3-(3-(2,6-dioxopiperidin-3-yl)benzofuran-5-yl)prop-2-yn-1-yl)-5-(6-fluoro-4-(7-(3-methoxyazetidin-1-yl)-1,3-dimethyl-2-oxo-1,2-dihydroquinolin-5-yl)-3,4-dihydro-2H-benzo[b][1,4]oxazin-7-yl)picolinamide] | > 80 | 1 to 9.9 |
| Cc1cc2c(N3CCN(C)c4cc(-c5ccc(C(=O)NCC#Cc6cc7c(C8CCC(=O)NC8=O)cccc7o6)nc5)ncc43)cccc2n(C)c1=O (centres unmarked) [Example B114, 5-(4-(1,3-dimethyl-2-oxo-1,2-dihydroquinolin-5-yl)-1-methyl-1,2,3,4-tetrahydropyrido [3,4-b]pyrazin-7-yl)-N-(3-(4-(2,6-dioxo-piperidin-3-yl)benzofuran-2-yl)prop-2-yn-1-yl)picolinamide] | > 80 | < 1 |
